Experimental data from patent US7696246B2 (Ligand Pharmaceuticals Incorporated, priority 1999, dated 2010).
Read-outs that look alike come from different tables or passages of the source.

Tests used:
human AR [1] = molecular target: T1, human AR (Homo sapiens, UniProt P10275); assay: Co-transfection assay, AR agonist activity (CV-1 cells, MTV-LUC reporter); type: cell-based; settings: CV-1 cells; for EC50: agonist potency EC50
T1 sequence (P10275 1-920): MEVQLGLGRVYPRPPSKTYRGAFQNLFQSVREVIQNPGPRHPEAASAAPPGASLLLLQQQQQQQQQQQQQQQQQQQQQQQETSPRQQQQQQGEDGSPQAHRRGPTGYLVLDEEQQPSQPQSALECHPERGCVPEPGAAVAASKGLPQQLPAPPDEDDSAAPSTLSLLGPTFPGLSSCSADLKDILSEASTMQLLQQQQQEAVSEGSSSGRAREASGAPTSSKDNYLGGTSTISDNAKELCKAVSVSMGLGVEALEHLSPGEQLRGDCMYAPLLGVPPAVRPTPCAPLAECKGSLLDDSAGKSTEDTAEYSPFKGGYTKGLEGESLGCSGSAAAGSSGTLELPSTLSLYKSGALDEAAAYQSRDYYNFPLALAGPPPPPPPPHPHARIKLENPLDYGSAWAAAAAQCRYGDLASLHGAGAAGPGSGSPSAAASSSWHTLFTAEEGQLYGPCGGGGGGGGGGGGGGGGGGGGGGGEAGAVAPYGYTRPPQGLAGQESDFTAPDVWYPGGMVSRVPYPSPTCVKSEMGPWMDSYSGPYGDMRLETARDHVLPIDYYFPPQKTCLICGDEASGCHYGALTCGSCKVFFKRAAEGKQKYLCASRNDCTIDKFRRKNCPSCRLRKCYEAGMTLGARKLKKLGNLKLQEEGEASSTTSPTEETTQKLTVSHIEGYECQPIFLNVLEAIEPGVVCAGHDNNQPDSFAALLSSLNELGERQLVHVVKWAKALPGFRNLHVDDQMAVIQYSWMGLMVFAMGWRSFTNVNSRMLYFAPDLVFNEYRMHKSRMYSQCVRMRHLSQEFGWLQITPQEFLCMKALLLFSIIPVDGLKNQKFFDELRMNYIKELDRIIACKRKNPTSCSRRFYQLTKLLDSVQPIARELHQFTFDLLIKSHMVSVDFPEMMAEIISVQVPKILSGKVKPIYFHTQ

human AR [2] = molecular target: T1, human AR; assay: Co-transfection assay, AR antagonist activity (CV-1 cells, in presence of DHT); type: cell-based; settings: for AR Antagonist CV-1 Cells Efficacy (%): percent maximal inhibition, DHT at its EC50; for IC50: read-out: AR Antagonist CV-1 Cells Potency
PR [3] = molecular target: T2, PR (Homo sapiens, UniProt P06401); assay: Co-transfection assay, PR agonist activity (CV-1 cells); type: cell-based; set-up: expressed in transfected cells; host or cells: CV-1 cells; settings: for EC50: agonist potency EC50; for PR Agonist CV-1 Cells Efficacy (%): percent maximal response relative to reference agonist progesterone
T2 sequence (P06401 1-933): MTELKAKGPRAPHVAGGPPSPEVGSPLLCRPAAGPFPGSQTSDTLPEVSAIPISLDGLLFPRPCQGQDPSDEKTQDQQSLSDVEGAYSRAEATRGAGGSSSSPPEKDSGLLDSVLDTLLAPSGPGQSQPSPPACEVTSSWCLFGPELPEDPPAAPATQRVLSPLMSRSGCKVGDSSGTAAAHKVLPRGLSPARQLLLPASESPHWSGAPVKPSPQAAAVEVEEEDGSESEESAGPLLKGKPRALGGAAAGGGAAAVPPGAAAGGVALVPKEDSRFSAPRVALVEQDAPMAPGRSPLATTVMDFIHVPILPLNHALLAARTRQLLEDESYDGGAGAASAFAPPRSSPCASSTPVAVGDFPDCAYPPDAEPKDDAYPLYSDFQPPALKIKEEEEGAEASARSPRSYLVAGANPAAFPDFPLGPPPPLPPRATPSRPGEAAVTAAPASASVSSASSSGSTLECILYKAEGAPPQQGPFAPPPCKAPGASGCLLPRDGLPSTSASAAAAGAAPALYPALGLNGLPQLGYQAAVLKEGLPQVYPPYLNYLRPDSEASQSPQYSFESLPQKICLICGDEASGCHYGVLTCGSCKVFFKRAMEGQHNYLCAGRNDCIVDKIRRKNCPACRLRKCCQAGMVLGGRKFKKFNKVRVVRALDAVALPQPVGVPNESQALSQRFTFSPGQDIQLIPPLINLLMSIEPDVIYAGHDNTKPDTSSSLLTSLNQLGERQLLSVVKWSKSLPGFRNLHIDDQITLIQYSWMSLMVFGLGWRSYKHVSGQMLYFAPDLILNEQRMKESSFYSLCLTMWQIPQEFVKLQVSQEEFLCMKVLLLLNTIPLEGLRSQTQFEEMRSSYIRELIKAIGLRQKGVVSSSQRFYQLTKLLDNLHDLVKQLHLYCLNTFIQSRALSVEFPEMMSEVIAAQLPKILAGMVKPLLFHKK

PR [4] = molecular target: T2, PR; assay: PR competitive binding assay; settings: Cheng-Prusoff
Method: After correcting for non-specific binding, IC50 values were determined. […] The IC50 value was determined graphically from a log-logit plot of the data. The Ki values were determined by application of the Cheng-Prusoff equivuation to the IC50 values, the labeled ligand concentration and the Kd of the labeled ligand.

PR [5] = molecular target: T2, PR; assay: Co-transfection assay, PR antagonist activity (CV-1 cells, in presence of progesterone); type: cell-based; set-up: expressed in transfected cells; host or cells: CV-1 cells; settings: for PR Antagonist CV-1 Cells Efficacy (%): percent maximal inhibition, progesterone at its EC50
human AR [6] = molecular target: T1, human AR; assay: AR whole cell competitive binding assay (COS-1 cells, 3H-DHT); settings: 1 nM 3H-DHT, Cheng-Prusoff
[7] = read-out: PR Antagonist CV-1 Cells Potency

CC(C)(O)C(=O)Nc1ccc2c(C(F)(F)F)cc(=O)[nH]c2c1
melting point: 289 to 291 °C

CCN(CC(C)(C)C)c1ccc2[nH]c(=O)cc(C(F)(F)F)c2c1 [Compound 242, 6-(N-Ethyl-N-2,2-dimethylpropyl)amino-4-trifluoromethyl-2(1H)-quinolinone]
EC50 (human AR [1]): 0.0028 µM | AR Agonist CV-1 Cells Efficacy (%) (human AR [1]; percent maximal response relative to reference agonist DHT): 66% | AR Antagonist CV-1 Cells Efficacy (%) (human AR [2]): na (na = not active (i.e. efficacy of <20 and potency of >10,000)) | IC50 (human AR [2]): > 10 µM | EC50 (PR [3]): > 10 µM | PR Agonist CV-1 Cells Efficacy (%) (PR [3]): na (na = not active (i.e. efficacy of <20 and potency of >10,000)) | Ki (PR [4]): 0.07 µM | IC50 (PR [5]): 0.2 µM | PR Antagonist CV-1 Cells Efficacy (%) (PR [5]): 95% | Ki (human AR [6]): 0.032 µM

CC1(C)OC(=O)Nc2ccc(C3=CCCCC3)cc21 [Compound 667, 6-(1-Cyclohexenyl)-1,4-dihydro-4,4-dimethyl-1,3-benzo[d]oxazin-2-one]
EC50 (human AR [1]): > 10 µM | AR Antagonist CV-1 Cells Efficacy (%) (human AR [2]): 89% | IC50 (human AR [2]): 0.027 µM | EC50 (PR [3]): > 10 µM | PR Agonist CV-1 Cells Efficacy (%) (PR [3]): na (na = not active (i.e. efficacy of <20 and potency of >10,000)) | Ki (PR [4]): 0.144 µM | PR Antagonist CV-1 Cells Efficacy (%) (PR [5]): 89% | IC50 (PR [5]; [7]): 0.07 µM | Ki (human AR [6]): 0.0074 µM

CC1(C)OC(=S)Nc2ccc(C3=CCCCC3)cc21 [Compound 689, 6-(1-Cyclohexenyl)-1,4-dihydro-4,4-dimethyl-1,3-benzo[d]oxazin-2-thione]
EC50 (human AR [1]): > 10 µM | AR Antagonist CV-1 Cells Efficacy (%) (human AR [2]): 89% | IC50 (human AR [2]): 0.04 µM | EC50 (PR [3]): 2.7 µM | PR Agonist CV-1 Cells Efficacy (%) (PR [3]): 105% | Ki (PR [4]): 0.023 µM | PR Antagonist CV-1 Cells Efficacy (%) (PR [5]): 47% | IC50 (PR [5]; [7]): 0.035 µM | Ki (human AR [6]): 0.132 µM

O=c1cc(C(F)(F)F)c2cc(-c3cccc(F)c3F)ccc2[nH]1 [Compound 725, 6-(2,3-Difluoro)phenyl-4-trifluoromethyl-2(1H)-quinolinone]
EC50 (human AR [1]): > 10 µM | AR Antagonist CV-1 Cells Efficacy (%) (human AR [2]): 87% | IC50 (human AR [2]): 0.079 µM | EC50 (PR [3]): > 10 µM | PR Agonist CV-1 Cells Efficacy (%) (PR [3]): na (na = not active (i.e. efficacy of <20 and potency of >10,000)) | Ki (PR [4]): 0.4 µM | IC50 (PR [5]): 0.149 µM | PR Antagonist CV-1 Cells Efficacy (%) (PR [5]): 92% | Ki (human AR [6]): > 1 µM

CC(=O)c1cccc(-c2ccc3[nH]c(=O)cc(C(F)(F)F)c3c2)c1 [Compound 735, 4-Trifluoromethyl-6-(3-acetylphenyl)-2(1H)-quinolinone]
EC50 (PR [3]): > 10 µM | PR Agonist CV-1 Cells Efficacy (%) (PR [3]): na (na = not active (i.e. efficacy of <20 and potency of >10,000)) | Ki (PR [4]): 0.915 µM | IC50 (PR [5]): 0.326 µM | PR Antagonist CV-1 Cells Efficacy (%) (PR [5]): 84%
